According to patent US20140363526A1, “SYNERGISTIC FORMULATION OF PLANT EXTRACTS FOR HEPATIC AND ADRENAL DISORDERS” (Bioved Pharmaceuticals, Inc., priority 2013, published 2014):

System: dexamethasone induced triglyceride synthesis in human subcutaneous pre-adipocytes
Test: Inhibition of long term dexamethasone induced triglyceride synthesis
Type: cell-based
Details: single extracts 1 μg/ml, combined formulation 10 μg/ml, vs DMSO control
Method: The study was conducted at a reputed US Contract Research Lab which has access to pooled human subcutaneous pre-adipocytes (female, average age 54.2, average BMI 27.9) from twelve different donors. These were cultured in 96-well plates in DMEM/Ham's F-12 (1:1, v/v) with 10% fetal bovine serum and differentiated according to a standard protocol. The next day, the pre-adipocyte medium was removed and replaced with differentiation medium; namely insulin, dexamethasone and IBMX (3-isobutyl-1-methylxanthine, a competitive nonselective phosphodiesterase inhibitor and a nonselective adenosine receptor antagonist. The media containing the formulations were prepared by different methods (individually and combined). After seven days, 90 μl of differentiation medium was removed and replaced with 120 μl of adipocyte medium (containing dexamethasone and insulin in DMEM). After seven more days, cells were assayed for cytotoxicity and cellular triglyceride content.
Cellular triglycerides were measured by a two-step procedure. […] After 15 minutes, the optical density of each well of the new plate was measured at 540 nm. The absorbance values of the unknown samples were converted to glycerol concentrations by correlation to the glycerol concentration standards using the generated linear regression equation.

## TNF-a
  inhibition of TG synthesis: significantly reduced TG synthesis
